Reference: patent publication USRE43615E1, “Method for controlling the yeast-to-filamentous growth transition in fungi” (priority 2007, dated 2012)

Assays:
[1] = tested on: C. albicans SC3514 (wild type) yeast-to-hypha transition; test: Inhibition of yeast-to-hypha transition in optical microplates, monitored by microscopy; format: cell-based, Candida albicans
Excerpt: (§1) A simple in vitro assay system was designed to detect inhibition of the yeast-to-filamentous growth transition in C. albicans. In this assay, C. albicans cells are first grown under conditions that maintain them in a yeast growth form. The yeast-form cells are then transferred to the wells of an optical microplate containing (i) a medium that induces either the yeast-to-hypha transition (in wild type cells) or the yeast-to-pseudohypha transition (in a conditional pseudohyphal mutant strain) and (ii) varying concentrations of BH3I-1 (typically 0, 10, 30, 50, 100 and 200 μM BH3I-1). The plates are incubated for up to six hours at 37° C. (to test for the hyphal transition) or up to 24 hours 30° C. (to test for the pseudohyphal transition). The transition to filamentous growth (or lack thereof) is monitored in the optical microplates directly with a Nikon TE200 inverted microscope.
(§2) C. albicans SC3514 was used as the “wild type” strain to monitor the yeast-to-hypha transition. A “conditional pseudohyphal mutant” strain was used to monitor the yeast-to-pseudohypha transition. The conditional strain harbors deletions of both native GRR1 alleles plus an introduced wild type copy of GRR1 under the control of the regulatable MET3 promoter. Deletion of GRR1 was previously found to cause pseudohyphal growth.
(§3) Standard yeast growth media were used for these experiments. To maintain wild type cells in the yeast-form, cells were grown in YPD medium (1% Yeast Extract, 2% Peptone and 2% Dextrose) at 30° C. To induce hyphal growth in the wild type strain, cells were transferred to Spider medium (1% Nutrient broth, 1% mannitol, […]) at 37° C. or to Lee's medium (0.5% (NH4)SO4, 0.02% MgSO4, 0.5% NaCl, 1.25% glucose, supplemented with alanine, leucine, lysine, ornithine, phenylalanine threonine and biotin) at 37° C. To maintain the conditional pseudohyphal mutant strain in the yeast-form, cells were grown in YNB medium (Yeast Nitrogen Base, ammonium sulfate, succinic acid supplemented with the appropriate amino acids) at 30° C. […]

[2] = tested on: C. albicans conditional pseudohyphal mutant (grr1/grr1, MET3p-driven GRR1) yeast-to-pseudohypha transition; test: Inhibition of yeast-to-pseudohypha transition in optical microplates, monitored by microscopy; format: cell-based, Candida albicans
Excerpt: as §1, §2, §3

CC(C)C(C(=O)O)N1C(=O)C(=Cc2ccc(Br)cc2)SC1=S (stereo not drawn) [BH3I-1, 5-(p-Bromobenzylidine)-α-isopropyl-4-oxo-2-thioxo-3-thiozolidineacetic acid]
minimum inhibitory concentration (MIC) for the yeast-to-hypha transition ([1]; wild type SC3514, both hyphal-inducing media (Spider medium, Lee's medium), 37° C.): 50 to 100 µM | growth of treated cells in hyphal-inducing media ([1]; wild type SC3514, hyphal-inducing media): continued to divide as yeast cells | yeast-to-hypha transition of treated cells ([1]; wild type SC3514 transferred from YPD medium to Spider medium or Lee's medium): failed to undergo the yeast-to-hypha transition | yeast-to-pseudohypha transition of treated cells ([2]; conditional pseudohyphal mutant transferred from YNB medium to YNB plus methionine/cysteine medium): failed to undergo the yeast-to-pseudohypha transition | MIC for the yeast-to-pseudohypha transition ([2]; conditional pseudohyphal mutant, YNB plus methionine/cysteine medium, 30° C.): 100 µM | growth of treated cells in pseudohyphal-inducing medium ([2]; conditional pseudohyphal mutant, pseudohyphal-inducing medium): continued to divide as yeast cells
